Patent US20250352663A1 (priority 2022, published 2025)

Experiments:
[1] = system: B16-F10 melanoma cells; assay: B16-F10 cell growth / proliferation monitoring; format: cell-based; details: eATP, 2 mM, compared with AuNC@ATP 2.25 μM
[2] = system: human prostate cancer xenografts; details: daily intraperitoneal administration of ATP (25 mM); cited from earlier work
[3] = system: tumor; details: intraperitoneal injection of ATP (50 mM); cited from earlier work
[4] = system: human tumor cells; details: cited from earlier work

Row | Structure (SMILES) | inhibiting B16-F10 cell proliferation [1] | tumor regression [2] | tumor size [3] | growth of human tumor cells (cell cycle) [4]
1 | Nc1ncnc2c1ncn2[C@@H]1O[C@H](COP(=O)(O)OP(=O)(O)OP(=O)(O)O)[C@@H](O)[C@H]1O [free ATP, Adenosine triphosphate] | does not achieve the same level of effectiveness | significant tumor regression | effectively reduced tumor size | arrest of growth in the S phase
2 | Nc1ncnc2c1ncn2[C@@H]1O[C@H](COP(=O)(O)OP(=O)(O)O)[C@@H](O)[C@H]1O [ADP] |  |  |  | arrest of growth in the S phase
